Data as given in patent US20090118330A1, “Diurea derivatives” (priority 2004, published 2009).
Counter-ions that a name gives are not always drawn. Like-named read-outs stand apart in the source and are kept apart here.

Tests used:
Type in all cases: cell-based
[1] = tested on: TNF-α production in human peripheral blood mononuclear cells; experiment: Inhibition of PMA/Ionomycin stimulated TNF-α production in human PBMC; details: mean±S.D., n=3
human T-cells = experiment: Induction of apoptosis in human T-cells; details: Annexin V, PARP cleavage, DNA fragmentation methods
Method: The induction of apoptosis can be observed by measuring Annexin V-binding to cells (Van Engeland et al. 1998). Primary human CD4^+ T cells were isolated from peripheral blood from healthy volunteers as described above. Cells were cultured immediately after purification at a density of 2×10^6 cells/ml in RPMI 1640 medium supplemented with 10% FCS, Gentamycin (100 μg/ml), Hepes (10 mM) and Sodium Pyruvate (1 mM). Cells were stained with annexin V-FITC and propidium iodide by using the ApoAlert Annexin V-FITC Apoptosis Kit (Clontech) according to manufacturer's instructions. Flow cytometry analysis was performed using a FACScan (Becton Dickinson). […] Cell lysates were prepared by lysing 2×10^6 PBS-washed cells in 50 μl buffer containing 20 mM Tris-HCl, pH 7.7, 250 mM NaCl, 3 mM EDTA, 3 mM EGTA 0.5% NP-40 supplemented with 1 mM p-nitrophenyl phosphate (PNPP), 10 mM β-glycerophosphate, 100 μM Na-vanadate and 1 mM phenylmethansulfonyl fluoride (PMSF). The protein concentrations were determined by using Bio-Rads protein assay and thereafter equal amounts of protein was loaded onto precasted NuPAGE™ Tris-Bis gels (Novex). After electrophoresis, the proteins were transferred to nitrocellulose membrane and probed with a polyclonal rabbit antibody directed against PARP (Roche). […]

[2] = tested on: IL-2 production in human T-cells (CD4+); experiment: Inhibition of PMA/Ionomycin stimulated IL-2 production in human T-cells; details: T-cell
Method: The compounds to be evaluated were dissolved in DMSO and the dilution series of the compounds were prepared in DMSO. The series were further diluted in cell culture medium (RPMI 1640 with ultraglutamine, 10% foetal calf serum (FCS)) to obtain a final assay concentration of DMSO of 0.1% in 200 μl total volume. The compounds were plated (2 μl/well) on opaque white assay plates together with controls.
Peripheral blood mononuclear cells (PBMC) were isolated from human blood drawn from healthy volunteers, by density gradient separation over Ficoll-Paque. T-cells (CD4+) were obtained with positive selection using magnetic cell sorting (MACS). The cells were resuspended at 1×10^6 cells/ml in cell culture medium (RPMI 1640 with ultraglutamine, 10% FCS, 10 mM hepes, 1 mM sodium pyruvate and 0.1 mg/ml gentamicin).
The cells (1×10^5/well) were added to the assay plates containing the diluted compounds and pre-incubated for 30 min at 37° C. in a humidified atmosphere of 5% carbon dioxide. The cells were stimulated with 10 ng/ml phorbol myristate acetate (PMA) and 250 ng/ml ionomycin and the plates were incubated for 4 hours at 37° C. in a humidified atmosphere of 5% carbon dioxide. Approximately 100 μl of the supernatants were removed and transferred to a separate microtiter plate and the remaining cells were lysed (Nucleotide Releasing Reagent, ViaLight™, Cambrex). All the plates were kept at −20° C. pending analysis. Human interleukin-2 (IL-2) was analysed with a standard ELISA kit (OptEIA™, Pharmingen) according to the manufacturer's instructions. Viability was assessed by measuring adenosine triphosphate (ATP) content by adding luciferase (ATP monitoring reagent, ViaLight™, Cambrex) to the lysed cells and measuring luminescence, all according to the manufacturer's specifications.
The % effect of each concentration of compound was calculated compared to non-treated stimulated cells. Non-linear regression, a modified Hill-plot (y=(a−d)/(1+(x/c)b)+d) was used to calculate the concentration for y=50% (IC50).

[3] = tested on: IL-6 production in human peripheral blood mononuclear cells; experiment: Inhibition of PMA/Ionomycin stimulated IL-6 production in human PBMC; details: mean±S.D., n=3
[4] = tested on: IFN-γ production in human peripheral blood mononuclear cells; experiment: Inhibition of PMA/Ionomycin stimulated IFN-γ production in human PBMC; details: mean±S.D., n=3
[5] = mean, n = 2, read-out: IC50 IL-2

SMILES | IC50 [2, 5] | other results
CCN(CC)CCN(CCNC(=O)Nc1cccc(C(F)(F)F)c1)C(=O)Nc1cccc(C(F)(F)F)c1.Cl [Compound A, 1-(2-Diethylamino-ethyl)-3-(3-trifluoromethyl-phenyl)-1-{2-[3-(3-trifluoromethyl-phenyl)-ureido]-ethyl}-urea, hydrochloride] | 2000 nM | IC50 [1]: 3000 ± 1000 nM; concentration at which significant apoptosis induction was observed (human T-cells): > 4 µM; IC50 ([2]; mean±S.D., n=30, read-out: IC50 of IL-2 production): 2000 ± 1000 nM; IC50 [3]: 3000 ± 1000 nM; IC50 [4]: 4000 ± 1000 nM
CCN(CC)CCN(CCNC(=O)Nc1cccc(C(F)(F)F)c1)C(=O)Nc1ccc(C(F)(F)F)cc1 [Compound B, 1-(2-Diethylamino-ethyl)-3-(4-trifluoromethyl-phenyl)-1-{2-[3-(3-trifluoromethyl-phenyl)-ureido]-ethyl}-urea] | 2000 nM | –
O=C(NCCN(CCN1CCCC1)C(=O)Nc1ccc(Cl)cc1)Nc1ccc(Cl)cc1 [Compound C, 3-(4-Chloro-phenyl)-1-{2-[3-(4-chloro-phenyl)-ureido]-ethyl}-1-(2-pyrrolidin-1-yl-ethyl)-urea] | 2000 nM | –
CN(C)CCN(CCNC(=O)Nc1ccc(Br)cc1)C(=O)Nc1ccc(Br)cc1 [Compound E, 3-(4-Bromo-phenyl)-1-{2-[3-(4-bromo-phenyl)-ureido]-ethyl}-1-(2-dimethylamino-ethyl)-urea] | 1000 nM | –
CCN(CC)CCN(CCNC(=O)Nc1ccccc1)C(=O)Nc1ccc(C(F)(F)F)cc1 [Compound F, 1-(2-Diethylamino-ethyl)-1-[2-(3-phenyl-ureido)-ethyl]-3-(4-trifluoromethyl-phenyl)-urea] | 3000 nM | –
CN(C)CCN(CCNC(=O)Nc1ccc(Cl)cc1)C(=O)Nc1ccc(C(F)(F)F)cc1 [Compound L, 1-{2-[3-(4-Chloro-phenyl)-ureido]-ethyl}-1-(2-dimethylamino-ethyl)-3-(4-trifluoromethyl-phenyl)-urea, hydrochloride] | 2000 nM | –
CCN(CC)CCN(CCNC(=O)Nc1cc(Cl)nc(Cl)c1)C(=O)Nc1ccc(Br)cc1 [Compound M, 1-{2-[3-(4-Bromo-phenyl)-1-(2-diethylamino-ethyl)ureido]-ethyl}-3-(2,6-dichloro-pyridin-4-yl)-urea] | 2000 nM | –

Now from value to molecule, other results behind:

IC50 [2, 5] | SMILES | other results
2000 nM | O=C(NCCN(CCN1CCCCC1)C(=O)Nc1cccc(Cl)c1)Nc1cccc(C(F)(F)F)c1 [Compound D, 1-{2-[3-(3-Chloro-phenyl)-1-(2-piperidin-1-yl-ethyl)ureido]-ethyl}-3-(3-trifluoromethyl-phenyl)-urea] | –
1000 nM | O=C(NCCN(CCN1CCCCC1)C(=O)Nc1ccc(C(F)(F)F)cc1)Nc1cccc(C(F)(F)F)c1 [Compound G, 1-(2-Piperidin-1-yl-ethyl)-3-(4-trifluoromethyl-phenyl)-1-{2-[3-(3-trifluoromethyl-phenyl)-ureido]-ethyl}-urea] | –
1000 nM | O=C(NCCN(CCN1CCCC1)C(=O)Nc1ccc(C(F)(F)F)cc1)Nc1cccc(C(F)(F)F)c1 [Compound H, 1-{2-[1-(2-Pyrrolidin-1-yl-ethyl)-3-(4-trifluoromethylphenyl)-ureido]-ethyl}-3-(3-trifluoromethyl-phenyl)-urea] | –
5000 nM | O=C(NCCN(CCN1CCCC1)C(=O)Nc1ccc(C(F)(F)F)cc1)Nc1ccc2ncccc2c1 [Compound I, 1-{2-[1-(2-Pyrrolidin-1-yl-ethyl)-3-(4-trifluoromethylphenyl)-ureido]-ethyl}-3-quinolin-6-yl-urea] | –
3000 nM | O=C(NCCN(CCN1CCCC1)C(=O)Nc1ccc(C(F)(F)F)cc1)Nc1ccc(C(F)(F)F)cc1 [Compound J, 1-(2-Pyrrolidin-1-yl-ethyl)-3-(4-trifluoromethyl-phenyl)-1-{2-[3-(4-trifluoromethyl-phenyl)-ureido]-ethyl}-urea] | –
2000 nM | O=C(NCCN(CCN1CCCCC1)C(=O)Nc1cccc(C(F)(F)F)c1)Nc1cccc(C(F)(F)F)c1 [Compound K, 1-(2-Piperidin-1-yl-ethyl)-3-(3-trifluoromethyl-phenyl)-1-{2-[3-(3-trifluoromethyl-phenyl)-ureido]-ethyl}-urea] | –
